Values joined by “and” are separate entries in the source; they are usually repeats but may differ in a detail not shown here. Identical values can stand only once. Inconclusive results and toxic doses are left out. Rule for the calls: active = survival T/C of 150% or more; inactive = T/C below 125% in these data.
Test system: BDF1 mice, P388 leukemia ip, median survival T/C
Test: NCI In Vivo Anticancer Drug Screen. Data for tumor model P388 Leukemia (intraperitoneal) in B6D2F1 (BDF1) mice
Conditions: endpoint: median survival time, higher = longer survival
Outline: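 Vehicle-dosed animals serve as the reference; survival of compound-dosed, tumour-implanted mice is divided by it.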

[1] = dose: 12.5 mg/kg/injection, schedule: Q01DX009 (ip), vehicle: water
[2] = dose: 25.0 mg/kg/injection, schedule: Q01DX009 (ip), vehicle: water
[3] = dose: 25.0 mg/kg/injection, schedule: Q04DX003 (ip), vehicle: water
[4] = dose: 50.0 mg/kg/injection, schedule: Q01DX009 (ip), vehicle: water
[5] = dose: 50.0 mg/kg/injection, schedule: Q04DX003 (ip), vehicle: water
[6] = dose: 100.0 mg/kg/injection, schedule: Q04DX003 (ip), vehicle: saline
[7] = dose: 50.0 mg/kg/injection, schedule: Q01DX005 (ip), vehicle: saline with Tween-80
[8] = dose: 100.0 mg/kg/injection, schedule: Q01DX005 (ip), vehicle: saline with Tween-80
[9] = dose: 100.0 mg/kg/injection, schedule: Q01DX009 (ip), vehicle: saline with Tween-80
[10] = dose: 100.0 mg/kg/injection, schedule: Q04DX003 (ip), vehicle: saline with Tween-80
[11] = dose: 200.0 mg/kg/injection, schedule: Q04DX003 (ip), vehicle: saline with Tween-80
[12] = dose: 400.0 mg/kg/injection, schedule: Q04DX003 (ip), vehicle: saline with Tween-80
[13] = dose: 200.0 mg/kg/injection, schedule: Q01DX009 (ip), vehicle: saline with Tween-80
[14] = dose: 50.0 mg/kg/injection, schedule: Q04DX003 (ip), vehicle: Klucel (hydroxypropylcellulose) (HPC)
[15] = dose: 100.0 mg/kg/injection, schedule: Q04DX003 (ip), vehicle: Klucel (hydroxypropylcellulose) (HPC)
[16] = dose: 50.0 mg/kg/injection, schedule: Q01DX009 (ip), vehicle: saline with Tween-80

Measured: T/C

Cc1cc(C)c(C)[nH]1
inactive: dose: 3.12 mg/kg/injection, schedule: Q01DX009 (ip), vehicle: water 87 % of control | dose: 6.25 mg/kg/injection, schedule: Q01DX009 (ip), vehicle: water 111 % of control | [1] 105 % of control | dose: 12.5 mg/kg/injection, schedule: Q04DX003 (ip), vehicle: water 91 % of control | [2] 103 % of control | [3] 114 % of control | [4] 97 % of control | [5] 107 % of control

O=C(CC(O)(C(F)(F)F)C(F)(F)F)c1ccc([N+](=O)[O-])cc1
inactive: dose: 100.0 mg/kg/injection, schedule: Q01DX009 (ip), vehicle: other 95 % of control | dose: 100.0 mg/kg/injection, schedule: Q04DX003 (ip), vehicle: other 110 % of control | dose: 200.0 mg/kg/injection, schedule: Q01DX009 (ip), vehicle: other 95 % of control | dose: 200.0 mg/kg/injection, schedule: Q04DX003 (ip), vehicle: other 95 % of control | dose: 400.0 mg/kg/injection, schedule: Q01DX009 (ip), vehicle: other 100 % of control | dose: 400.0 mg/kg/injection, schedule: Q04DX003 (ip), vehicle: other 100 % of control

NNC(=O)c1cnccn1
inactive: dose: 40.0 mg/kg/injection, schedule: Q01DX010 (ip), vehicle: water 100 % of control | dose: 60.0 mg/kg/injection, schedule: Q01DX010 (ip), vehicle: water 100 % of control | dose: 80.0 mg/kg/injection, schedule: Q01DX010 (ip), vehicle: water 100 % of control and 109 % of control

O=C(NC1CCCCC1)O/N=C/c1ccccn1
inactive: dose: 100.0 mg/kg/injection, schedule: Q01DX001 (ip), vehicle: other 87 % of control | dose: 400.0 mg/kg/injection, schedule: Q01DX001 (ip), vehicle: other 91 % of control

CNC(C)COc1ccccc1 (stereo not given)
inactive: dose: 25.0 mg/kg/injection, schedule: Q04DX003 (ip), vehicle: saline 104 % of control | dose: 50.0 mg/kg/injection, schedule: Q04DX003 (ip), vehicle: saline 100 % of control | [6] 90 % of control

CC(C)(C)C1CNP(=O)(c2ccccc2)OC1 (stereo not given)
inactive: [7] 99 % of control | [8] 101 % of control | dose: 200.0 mg/kg/injection, schedule: Q01DX005 (ip), vehicle: saline with Tween-80 100 % of control

CC(C)NCC(=O)c1ccc(O)c(O)c1
inactive: [9] 109 % of control | [10] 100 % of control | [11] 100 % of control | [12] 100 % of control

CC1=CC(=O)c2ccccc2C1=O
inactive: dose: 8.8 mg/kg/injection, schedule: Q01DX010 (ip), vehicle: carboxymethylcellulose (CMC) 110 % of control | dose: 13.3 mg/kg/injection, schedule: Q01DX010 (ip), vehicle: carboxymethylcellulose (CMC) 110 % of control | dose: 20.0 mg/kg/injection, schedule: Q01DX010 (ip), vehicle: carboxymethylcellulose (CMC) 90 % of control | dose: 30.0 mg/kg/injection, schedule: Q01DX010 (ip), vehicle: carboxymethylcellulose (CMC) 115 % of control

CSc1ncc2cnccn12
inactive: [1] 105 % of control | [2] 96 % of control | [3] 100 % of control | [4] 100 % of control | [5] 104 % of control | dose: 100.0 mg/kg/injection, schedule: Q04DX003 (ip), vehicle: water 95 % of control

Nc1cc(N)c([N+](=O)[O-])cc1[N+](=O)[O-]
inactive: [9] 90 % of control | [13] 100 % of control | dose: 400.0 mg/kg/injection, schedule: Q01DX009 (ip), vehicle: saline with Tween-80 104 % of control

CCOC(=O)C(C(C)=O)C(C)C (stereo not given)
inactive: dose: 100.0 mg/kg/injection, schedule: Q01DX005 (ip), vehicle: other 112 % of control | dose: 200.0 mg/kg/injection, schedule: Q01DX005 (ip), vehicle: other 117 % of control | dose: 400.0 mg/kg/injection, schedule: Q01DX005 (ip), vehicle: other 109 % of control

COc1cc(-c2ccc(NC(=O)NC3CC3)c(OC)c2)ccc1NC(=O)NC1CC1
inactive: [7] 89 % of control | [8] 91 % of control

O=[N+]([O-])c1ccc(N/N=C\c2ccc3ccccc3n2)cc1
inactive: dose: 100.0 mg/kg/injection, schedule: Q01DX009 (ip), vehicle: saline 104 % of control | [6] 118 % of control | dose: 200.0 mg/kg/injection, schedule: Q01DX009 (ip), vehicle: saline 109 % of control | dose: 200.0 mg/kg/injection, schedule: Q04DX003 (ip), vehicle: saline 104 % of control | dose: 400.0 mg/kg/injection, schedule: Q04DX003 (ip), vehicle: saline 109 % of control

CCOC(=O)C(C)C(=O)Cc1cc(OC)c(C)cc1Br (stereo not given)
inactive: [14] 100 % of control | dose: 100.0 mg/kg/injection, schedule: Q01DX009 (ip), vehicle: Klucel (hydroxypropylcellulose) (HPC) 110 % of control | [15] 91 % of control | dose: 200.0 mg/kg/injection, schedule: Q01DX009 (ip), vehicle: Klucel (hydroxypropylcellulose) (HPC) 105 % of control | dose: 200.0 mg/kg/injection, schedule: Q04DX003 (ip), vehicle: Klucel (hydroxypropylcellulose) (HPC) 95 % of control | dose: 400.0 mg/kg/injection, schedule: Q01DX009 (ip), vehicle: Klucel (hydroxypropylcellulose) (HPC) 100 % of control | dose: 400.0 mg/kg/injection, schedule: Q04DX003 (ip), vehicle: Klucel (hydroxypropylcellulose) (HPC) 95 % of control

COCCNCCN1CCN(CCCN2c3ccccc3Sc3ccc(C(F)(F)F)cc32)CC1
inactive: dose: 20.0 mg/kg/injection, schedule: Q04DX003 (ip), vehicle: saline 105 % of control and 106 % of control | dose: 40.0 mg/kg/injection, schedule: Q04DX003 (ip), vehicle: saline 108 % of control and 113 % of control | dose: 80.0 mg/kg/injection, schedule: Q04DX003 (ip), vehicle: saline 120 % of control

O=c1[nH]c(=O)n(C2CC(O)C(CO)O2)cc1C(F)(F)F (stereo not given)
inactive: dose: 62.5 mg/kg/injection, schedule: Q01DX009 (ip), vehicle: Klucel (hydroxypropylcellulose) (HPC) 104 % of control | dose: 125.0 mg/kg/injection, schedule: Q01DX009 (ip), vehicle: Klucel (hydroxypropylcellulose) (HPC) 118 % of control | dose: 250.0 mg/kg/injection, schedule: Q01DX009 (ip), vehicle: Klucel (hydroxypropylcellulose) (HPC) 122 % of control | dose: 500.0 mg/kg/injection, schedule: Q01DX009 (ip), vehicle: Klucel (hydroxypropylcellulose) (HPC) 90 % of control

CCOC(=O)Cc1csc(=NC(=O)c2ccccc2)n1N
inactive: [16] 108 % of control | [9] 115 % of control | [13] 101 % of control

N#Cc1ccc(C(=O)CC(O)(C(F)(F)F)C(F)(F)F)cc1
inactive: dose: 66.0 mg/kg/injection, schedule: Q04DX003 (ip), vehicle: saline with Tween-80 104 % of control | [10] 95 % of control | dose: 150.0 mg/kg/injection, schedule: Q04DX003 (ip), vehicle: saline with Tween-80 104 % of control | [11] 100 % of control | [12] 95 % of control

CC(=O)OCC(=O)[C@@]1(O)CC[C@H]2[C@@H]3CCC4=CC(=O)C=C[C@]4(C)[C@@]3(F)[C@@H](O)C[C@@]21C
inactive: dose: 12.5 mg/kg/injection, schedule: Q01DX009 (ip), vehicle: saline sonified 104 % of control | dose: 25.0 mg/kg/injection, schedule: Q01DX009 (ip), vehicle: saline sonified 109 % of control | dose: 50.0 mg/kg/injection, schedule: Q01DX009 (ip), vehicle: saline sonified 100 % of control

COc1ccc(C=NCCN=Cc2ccc(OC)cc2)cc1
inactive: dose: 100.0 mg/kg/injection, schedule: Q01DX001 (ip), vehicle: Klucel (hydroxypropylcellulose) (HPC) 109 % of control | dose: 200.0 mg/kg/injection, schedule: Q01DX001 (ip), vehicle: Klucel (hydroxypropylcellulose) (HPC) 100 % of control | dose: 400.0 mg/kg/injection, schedule: Q01DX001 (ip), vehicle: Klucel (hydroxypropylcellulose) (HPC) 95 % of control

N/N=C(/c1ccccc1)c1nc(-c2ccccc2)n[nH]c1=O
inactive: [16] 111 % of control | [9] 106 % of control | [13] 112 % of control

O=C1C(Br)=CC(=C2C=C(Br)C(=O)C(Br)=C2)C=C1Br
inactive: [14] 113 % of control | [15] 122 % of control

From PubChem BioAssay AID328 (DTP/NCI, 2004)
